Results on 28 molecules are retold here after patent US20230391786A1, “cGAS INHIBITORS” (Eli Lilly and Company, priority 2022, published 2023).

Structures can show the parent of a compound that is named as a salt.

Assay [1] concerns the target recombinant human cGAS (Homo sapiens (Human), UniProt Q8N884). Kind of assay: In vitro inhibition assay of cGAS activity (cGAMP production, RapidFire mass spectrometry). It is filed as biochemical. The following applies: 10 nM recombinant human cGAS, 60 nM 75-bp dsDNA, ATP, GTP, room temperature 3 hours, read-out: IC50 (μM), In vitro inhibition assay for Compounds 95-348. The method, boiled down:
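Product cGAMP was quantified by RapidFire MS against a difluoro-cGAMP internal standard after a formic acid quench. The reaction contained 10 nM recombinant full-length human cGAS, 75-bp dsDNA (60 nM), ATP and GTP (50 μM) and ran for 3 h at room temperature. IC50 values came from 4-parameter nonlinear regression.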

The test system of assay [2] is cGAS activity in THP1 cells (IFNb as marker). Kind of assay: Cellular assay to measure cGAS activity (IFNb production in PMA-differentiated THP1 cells stimulated by RDG-Adenovirus-GFP). It is filed as cell-based, human. The conditions noted are these: Homo sapiens, THP-1, THP1 cells, PMA differentiated, RDG-Adenovirus-GFP 1000 MOI, IFNb AlphaLISA, overnight incubation; read-out: IC50 (μM), Cellular assay for Compounds 95-348. As to the method:
Cellular assay to measure cGAS activity: Use THP1 cell line from ATCC to determine inhibition of cGAS activity by test compounds in human cells. Plate cells on 96-well plates at 0.2×10^6/well and differentiate with phorbol myristate acetate (PMA) at 37° C./5% CO2. After 24 hours, replace PMA containing media with media lacking PMA and further incubate overnight. Stimulate cells were then by RDG-Adenovirus-GFP (Vector Biolabs #1768) at 1000 MOI for 4 hours prior to the addition of test compounds. After overnight incubation, transfer 10 μL of the media from each well to a new plate for IFNb analysis as a marker for cGAS activity. Measure quantification of IFNb with an IFNb AlphaLISA Detection kit (Perkin Elmer AL3133F) by mixing the acceptor beads with the cell supernatant followed by the addition of the biotinylated antibody and donor beads. Measure the relative fluorescence signal produced from the interaction of the donor and acceptor beads by a PHERAStar AlphaLISA protocol and evaluate the inhibitory effect of a compound by plotting specific inhibition of IFNb production against log concentration of the test compound. Calculate IC50 values using a 4-parameter non-linear logistic equation (y=(S0+((SInf−S0)/(1+((qAC50/x)^nHill))))).
A general note: In Alpha technology, singlet oxygen from a donor bead excites a nearby acceptor bead.

Chain of recombinant human cGAS (Q8N884 whole entry): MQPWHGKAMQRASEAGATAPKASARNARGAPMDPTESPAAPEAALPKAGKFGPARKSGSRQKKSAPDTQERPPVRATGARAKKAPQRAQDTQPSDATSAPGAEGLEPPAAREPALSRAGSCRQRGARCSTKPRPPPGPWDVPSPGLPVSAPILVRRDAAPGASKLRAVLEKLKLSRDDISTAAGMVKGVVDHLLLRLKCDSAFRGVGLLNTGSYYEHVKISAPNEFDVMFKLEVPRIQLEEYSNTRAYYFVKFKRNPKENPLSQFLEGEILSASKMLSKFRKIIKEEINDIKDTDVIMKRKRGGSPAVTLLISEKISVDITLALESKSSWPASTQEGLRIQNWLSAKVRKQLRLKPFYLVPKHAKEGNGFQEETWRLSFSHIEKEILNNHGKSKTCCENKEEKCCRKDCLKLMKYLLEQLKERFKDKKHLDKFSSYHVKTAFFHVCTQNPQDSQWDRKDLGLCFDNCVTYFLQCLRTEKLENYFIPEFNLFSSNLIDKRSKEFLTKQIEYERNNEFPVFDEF

The IC50 is the point on the concentration scale where inhibition reaches its midpoint. As to `Cn1c(CNC(=O)CO)c(-c2cn[nH]c2)c2ccc(Cl)c(Cl)c21` [Example 133, N-[[6,7-Dichloro-1-methyl-3-(1H-pyrazol-4-yl)indol-2-yl]methyl]-2-hydroxy-acetamide], the results for the IC50 in assay [1] and in assay [2] were 0.0112 µM and 0.498 µM, respectively.

For the molecule `CC(=O)NCc1c(-c2cn[nH]c2)c2ccc(Cl)c(Cl)c2n1C` [Example 134, N-[[6,7-Dichloro-1-methyl-3-(1H-pyrazol-4-yl)indol-2-yl]methyl]acetamide], the IC50 worked out at 0.0282 µM in assay [1] and 1.59 µM in assay [2].

`N#CCNc1cc(Cl)c(Cl)c2c1c(-c1cn[nH]c1)c1n2CCNC1=O` [Example 135, 2-[[6,7-Dichloro-1-oxo-10-(1H-pyrazol-4-yl)-3,4-dihydro-2H-pyrazino[1,2-a]indol-9-yl]amino]acetonitrile]: the IC50 is 0.0486 µM in assay [1] and > 10 µM in assay [2].

Consider `CC(=O)NCCn1cc(-c2cn[nH]c2)c2c(OCC#N)cc(Cl)c(Cl)c21` [Example 136, N-[2-[6,7-Dichloro-4-(cyanomethoxy)-3-(1H-pyrazol-4-yl)indol-1-yl]ethyl]acetamide], for which the IC50 was determined as 0.0764 µM in assay [1] and 3.42 µM in assay [2].

For `OCCn1cc(-n2cc(-c3cn[nH]c3)c3ccc(Cl)c(Cl)c32)nn1` [Example 138, 2-[4-[6,7-Dichloro-3-(1H-pyrazol-4-yl)indol-1-yl]triazol-1-yl]ethanol], the results for the IC50 in assay [1] and in assay [2] were 0.0462 µM and 4.99 µM, respectively.

Consider `OCCCn1cc(-n2cc(-c3cn[nH]c3)c3ccc(Cl)c(Cl)c32)nn1` [Example 139, 3-[4-[6,7-Dichloro-3-(1H-pyrazol-4-yl)indol-1-yl]triazol-1-yl]propan-1-ol], for which the IC50 was 0.077 µM in assay [1] and 5.13 µM in assay [2].

As for `OCC(O)Cn1cc(-n2cc(-c3cn[nH]c3)c3ccc(Cl)c(Cl)c32)nn1` (centres unmarked) [Example 140, 3-[4-[6,7-Dichloro-3-(1H-pyrazol-4-yl)indol-1-yl]triazol-1-yl]propane-1,2-diol], the IC50 amounted to 0.0481 µM in assay [1] and 7.11 µM in assay [2].

In the case of `CNC(=O)CC(=O)NC1CCc2c(-c3cn[nH]c3)c3ccc(Cl)c(Cl)c3n2C1` (centres unmarked) [Example 141, N′-[3,4-Dichloro-10-(1H-pyrazol-4-yl)-6,7,8,9-tetrahydropyrido[1,2-a]indol-7-yl]-N-methyl-propanediamide], the IC50 in assay [1] was 0.0275 µM; in assay [2] it was 3.3 µM.

In the case of `N#CCOc1cc(Cl)c(Cl)c2c1c(-c1cn[nH]c1)c1n2CCN(CCO)C1=O` [Example 142, 2-[[6,7-Dichloro-2-(2-hydroxyethyl)-1-oxo-10-(1H-pyrazol-4-yl)-3,4-dihydropyrazino[1,2-a]indol-9-yl]oxy]acetonitrile], the concentration for half-maximal inhibition (IC50) came to 0.0127 µM in assay [1] and 3.14 µM in assay [2].

Take `N#CCNc1cc(Cl)c(Cl)c2c1c(-c1cn[nH]c1)c1n2CCN(CCO)C1=O` [Example 143, 2-[[6,7-Dichloro-2-(2-hydroxyethyl)-1-oxo-10-(1H-pyrazol-4-yl)-3,4-dihydropyrazino[1,2-a]indol-9-yl]amino]acetonitrile]: the results for the IC50 in assay [1] and in assay [2] were 0.0419 µM and > 10 µM, respectively.

For the molecule `OCCCNc1cc(Cl)c(Cl)c2[nH]cc(-c3cn[nH]c3)c12` [Example 144, 3-[[6,7-Dichloro-3-(1H-pyrazol-4-yl)-1H-indol-4-yl]amino]propan-1-ol], the half-maximal inhibitory concentration (IC50) in assay [1] turned out to be 0.00433 µM; in assay [2], 1.47 µM.

For `O=C(CO)Nc1cc(Cl)c(Cl)c2c1c(-c1cn[nH]c1)c1n2CCN(C(=O)CO)C1` [Example 145, N-(6,7-Dichloro-2-(2-hydroxyacetyl)-10-(1H-pyrazol-4-yl)-1,2,3,4-tetrahydropyrazino[1,2-a]indol-9-yl)-2-hydroxyacetamide], the IC50 was 0.0804 µM in assay [1] and > 10 µM in assay [2].

On to `CC(=O)N1CCn2c(c(-c3cn[nH]c3)c3c(NC(=O)CO)cc(Cl)c(Cl)c32)C1` [Example 146, N-(2-Acetyl-6,7-dichloro-10-(1H-pyrazol-4-yl)-1,2,3,4-tetrahydropyrazino[1,2-a]indol-9-yl)-2-hydroxyacetamide], for which the figures for the concentration for half-maximal inhibition (IC50) in assay [1] and in assay [2] were 0.0918 µM and > 10 µM, respectively.

Take `NC1(C(=O)N2CCn3c(c(-c4cn[nH]c4)c4ccc(Cl)c(Cl)c43)C2)CCOCC1` [Example 147, (4-Aminotetrahydro-2H-pyran-4-yl)(6,7-dichloro-10-(1H-pyrazol-4-yl)-3,4-dihydropyrazino[1,2-a]indol-2(1H)-yl)methanone]: the results for the IC50 in assay [1] and in assay [2] were 0.0474 µM and 4.63 µM, respectively.

For `CCNc1cc(Cl)c(Cl)c2c1c(-c1cn[nH]c1)c1n2CCN(C(=O)CO)C1` [Example 148, 1-(6,7-Dichloro-9-(ethylamino)-10-(1H-pyrazol-4-yl)-3,4-dihydropyrazino[1,2-a]indol-2(1H)-yl)-2-hydroxyethan-1-one], the values for the IC50 in assay [1] and in assay [2] were 0.052 µM and 1.54 µM, respectively.

As to `CCNc1cc(Cl)c(Cl)c2c1c(-c1cn[nH]c1)c1n2CCN(C)C1=O` [Example 149, 6,7-Dichloro-9-(ethylamino)-2-methyl-10-(1H-pyrazol-4-yl)-3,4-dihydropyrazino[1,2-a]indol-1-one hydrochloride], the half-inhibitory concentration (IC50) in assay [1] amounted to 0.0442 µM; in assay [2] it was 6.05 µM.

For `CCNc1cc(Cl)c(Cl)c2[nH]cc(-c3cn[nH]c3)c12` [Example 150, 6,7-Dichloro-N-ethyl-3-(1H-pyrazol-4-yl)-1H-indol-4-amine], the results for the IC50 in assay [1] and in assay [2] were 0.0303 µM and 1.92 µM, respectively.

As for `CC(=O)N1CCOC(CCN2CCn3c(c(-c4cn[nH]c4)c4c(OCC#N)cc(Cl)c(Cl)c43)C2=O)C1` (centres unmarked) [Example 151, 2-[[2-[2-(4-Acetylmorpholin-2-yl)ethyl]-6,7-dichloro-1-oxo-10-(1H-pyrazol-4-yl)-3,4-dihydropyrazino[1,2-a]indol-9-yl]oxy]acetonitrile], the IC50 in assay [1] was 0.0349 µM; in assay [2], > 10 µM.

Regarding `COc1cc2c(-c3cn[nH]c3)cn(-c3cn(CCO)nn3)c2cc1Cl` [Example 152, 2-[4-[6-Chloro-5-methoxy-3-(1H-pyrazol-4-yl)indol-1-yl]triazol-1-yl]ethanol], the values for the IC50 in assay [1] and in assay [2] were 0.0142 µM and 1.4 µM, respectively.

For `CC(=O)NCc1[nH]c2c(Cl)c(Cl)cc(OCC#N)c2c1-c1cn[nH]c1` [Example 153, N-((6,7-Dichloro-4-(cyanomethoxy)-3-(1H-pyrazol-4-yl)-1H-indol-2-yl)methyl)acetamide], the IC50 in assay [1] stood at 0.00511 µM; in assay [2] it was 0.807 µM.

In the case of `O=C(CO)NC1Cc2c(-c3cn[nH]c3)c3ccc(Cl)c(Cl)c3n2C1` (centres unmarked) [Example 154, N-(5,6-Dichloro-9-(1H-pyrazol-4-yl)-2,3-dihydro-1H-pyrrolo[1,2-a]indol-2-yl)-2-hydroxyacetamide], the IC50 stood at 0.026 µM in assay [1] and 2.41 µM in assay [2].

As for `CC(=O)NC1Cc2c(-c3cn[nH]c3)c3ccc(Cl)c(Cl)c3n2C1` (centres unmarked) [Example 155, N-(5,6-Dichloro-9-(1H-pyrazol-4-yl)-2,3-dihydro-1H-pyrrolo[1,2-a]indol-2-yl)acetamide], the IC50 was 0.0273 µM in assay [1] and 7.68 µM in assay [2].

For `Clc1ccc2c(-c3cn[nH]c3)c(-c3nnco3)[nH]c2c1Cl` [Example 156, 2-[6,7-Dichloro-3-(1H-pyrazol-4-yl)-1H-indol-2-yl]-1,3,4-oxadiazole], the IC50 in assay [1] turned out to be 0.0405 µM; in assay [2] it was 0.464 µM.

For `OCc1nnc(-c2[nH]c3c(Cl)c(Cl)ccc3c2-c2cn[nH]c2)o1` [Example 157, (5-(6,7-Dichloro-3-(1H-pyrazol-4-yl)-1H-indol-2-yl)-1,3,4-oxadiazol-2-yl)methanol], the IC50 in assay [1] was found to be 0.0281 µM; in assay [2] it was 0.331 µM.

Regarding `Cc1nnc(-c2[nH]c3c(Cl)c(Cl)ccc3c2-c2cn[nH]c2)s1` [Example 158, 2-(6,7-Dichloro-3-(1H-pyrazol-4-yl)-1H-indol-2-yl)-5-methyl-1,3,4-thiadiazole], the IC50 in assay [1] was 0.0507 µM; in assay [2], 0.363 µM.

Consider `Sc1nnc(-c2[nH]c3c(Cl)c(Cl)ccc3c2-c2cn[nH]c2)[nH]1` [Example 159, 5-[6,7-Dichloro-3-(1H-pyrazol-4-yl)-1H-indol-2-yl]-4H-1,2,4-triazole-3-thiol], for which the IC50 in assay [1] was 0.019 µM; in assay [2] it was > 10 µM.

Regarding `Clc1ccc2c(-c3cn[nH]c3)c(-c3nnc(C4CC4)o3)[nH]c2c1Cl` [Example 160, 2-Cyclopropyl-5-(6,7-dichloro-3-(1H-pyrazol-4-yl)-1H-indol-2-yl)-1,3,4-oxadiazole], the IC50 in assay [1] was found to be 0.0787 µM; in assay [2] it was 0.536 µM.

On to `COc1cc(Cl)cc2c1c(-c1cn[nH]c1)cn2-c1cn(CCO)nn1` [Example 161, 2-[4-[6-Chloro-4-methoxy-3-(1H-pyrazol-4-yl)indol-1-yl]triazol-1-yl]ethanol], for which the results for the IC50 in assay [1] and in assay [2] were 0.0616 µM and 1.01 µM, respectively.
